What was measured:
[1] = system: LPS-induced TNF production; conditions: cited from earlier work
[2] = system: peripheral blood mononuclear cells (PBMC); assay: Cytokine secretion by PBMC stimulated with megaCD40L and LPS (after IFN-γ); assay type: cell-based, human
Protocol: (§1) PBMC were freshly isolated from heparinized human blood using Fycoll density gradient centrifugation (Histopaque; Sigma Diagnostics). PBMC were cultured in RPMI containing 10% FCS in round-bottom 96-well plates at a concentration of 5×10E5 cells/mL. Two different stimuli were used to induce cytokine secretion from PBMC: • 1. PBMC were cultured in the presence of IFN-γ (250 U/mL) for 24 hours to induce upregulation of CD40. The CD40 pathway was subsequently activated for 24 hours with megaCD40L (100 ng/mL, Enzo Life Sciences). • 2. PBMC were cultured in the presence of IFN-γ for 24 hours to induce upregulation of CD40. Cells were subsequently stimulated for 24 hours with megaCD40L (100 ng/mL) and LPS (100 ng/mL).
(§2) Stimulated PBMC were cultured in the absence or presence of variable concentrations of PG102 (5, 10 and 100 ng/mL) and/or 6-ECDCA (0.1, 1 and 5 μM). PG102 was added simultaneously with the stimulus. In contrast, 6-ECDCA was added 3 hours before adding the stimulus. At the end of the culture period, supernatants were collected and stored at −80° C. until cytokine analysis was performed. The BD cytometric Bead Array (CBA) Human Inflammatory Cytokines Kit (BD Biosciences) was used to measure IL-1β, IL-8, IL-6, TNF and IL-12p70 levels in the culture supernatants. The assay was performed according to the manufacturer's instructions. In brief, capture beads for the cytokines of interest were mixed with supernatant or human inflammatory cytokine standards and PE detection reagent. Samples were incubated for 3 hours at room temperature in the dark. Subsequently, samples were washed and analyzed on a FACS CANTO II cytometer (BD Biosciences). Data was analyzed using de FCAP Array software (BD Biosciences).

[3] = system: peripheral blood mononuclear cells (PBMC); assay: Cytokine secretion by PBMC stimulated with megaCD40L (after IFN-γ); assay type: cell-based, human; conditions: megaCD40L stimulus
Protocol: as §1, §2

[4] = system: C57/Bl6 wild type mice; assay: DSS-induced colitis mouse model; assay type: in vivo
Protocol: Colitis was induced in C57/Bl6 wild type mice by administration of 2.5% (wt/vol) Dextran Sodium Sulphate (DSS; MW. 36000-50000 Da, MP Biochemicals Inc) in drinking water for 8 days. Pharmacological activation of FXR was accomplished by treatment with 6-ethyl-chenodeoxycholic acid (6-ECDCA). 6-ECDCA (10 mg/kg/day) or vehicle were administered by oral gavage for three days prior to the start of DSS-treatment, and continued until the end of the DSS-treatment. At the second day of DSS treatment (day 4 of 6-ECDCA treatment), mice were given an intraperitoneal (i.p.) injection with 250 μg of the hamster antibody against mouse CD40L, MR-1, or control IgG (LEAF™ Purified Armenian Hamster IgG Isotype Ctrl Antibody, Biolegend).
There were 5 treatment groups (n=10 mice/group) in the experiment: […]
Daily changes in body weight were assessed and the body weight at day 2-11 was expressed relative to the body weight at day 1. […] 4 h after FITC administration, mice were sacrificed and the amount of fluorescence in the blood was determined as a marker for permeability. The colon was isolated and colon length was measured. […] Granulocytes were identified based on GR-1 and CD11b expression and expressed as percentage of living cells in the spleen. […] Culture supernatants were collected and TNF was measured using an ELISA.

[5] = system: chemically induced intestinal inflammation; conditions: in vivo; cited from earlier work
[6] = 6-ECDCA 5 μM, megaCD40L and LPS stimulus

In the case of `CC[C@H]1[C@@H](O)[C@@H]2[C@H](CC[C@]3(C)[C@@H]([C@H](C)CCC(=O)O)CC[C@@H]23)[C@@]2(C)CC[C@@H](O)C[C@@H]12` [6-ECDCA, 6-ethyl-chenodeoxycholic acid], the “LPS-induced TNF production” value [1] is given as “inhibit LPS-induced TNF production in a dose-dependent fashion”, the “inhibition of IL-1β” value [2, 6] is given as 12% and the “inhibition of IL-6” value [2, 6] is given as 0%. For the same molecule, the “inhibition of IL-8” value [2, 6] was 9%, the “inhibition of IL-12p70” value [2, 6] was 22% and the “inhibition of TNF” value [2, 6] was 21%. For the same molecule, the “inhibiting proinflammatory cytokine release” value ([2]; activation of the CD40 pathway alone or in combination with the TLR-4 pathway) was “not very effective”, the “inhibition of IL-1β release” value ([3]; 6-ECDCA 5 μM) was 35% and the “inhibition of IL-6 release” value ([3]; 6-ECDCA 5 μM) was 18%. For the same molecule, the “inhibition of IL-8 release” value ([3]; 6-ECDCA 5 μM) was 17%, the “inhibition of IL-12p70 release” value ([3]; 6-ECDCA 5 μM) was 20% and the “inhibition of TNF release” value ([3]; 6-ECDCA 5 μM) was 14%. The “release of TNF, IL-6, IL-8, IL-1β and IL-12p70” value ([3]; 6-ECDCA alone at 0.1 or 1 μM) was “did not inhibit”, the “colitis disease process induced by DSS” value ([4]; 6-ECDCA 10 mg/kg/day oral gavage, MR-1 250 μg i.p. once, second day of DSS) was “interfered with the colitis disease process” and the “granulocytes in the spleen (GR-1, CD11b; FACS)” value ([4]; end of experiment, FIG. 11) was “increase in granulocytes”. The “chemically induced intestinal inflammation” value [5] was “interfere with chemically induced intestinal inflammation”.
